{
  "source": "patent US20240082281A1",
  "about": "“ANTI-INFLAMMATORY PHYTONUTRIENTS FOR USE IN THE TREATMENT OR PREVENTION OF SYNOVITIS” (SOCIÉTÉ DES PRODUITS NESTLÉ S.A., priority 2013, published 2024)",
  "key": {"[1]": {"tested_on": "Dunkin-Hartley guinea pigs", "test": "Spontaneous osteoarthritis in Dunkin-Hartley guinea pigs: histological OA score and synovial score (OARSI)", "format": "in vivo, guinea pig", "conditions": "in diet 31 weeks (oleuropein 0.025%, rutin 0.5%, curcumin 0.25%); week 35; vs control group; p<0.01", "method": "An in vivo study of spontaneous development of osteoarthritis in Dunkin-Hartley guinea pigs was performed. Sixty-five male Dunkin-Hartley guinea-pigs aged 3 weeks were obtained from Charles River Laboratories (Paris). Animals were housed 5 per cage in solid bottom cages and fed with standard guinea-pig diet and water ad libitum. All animals were allowed one week for acclimatization to housing conditions prior to phytonutrients administration. PVC pipes were added to the cages to improve housing conditions and minimize stress.\nSubstantially purified oleuropein (>90%) was purchased from Extrasynthese (Genay, France). Substantially purified rutin (>94%) was purchased from Sigma-Aldrich (Buchs, Switzerland).\nOleuropein, rutin and curcumin were integrated in the diet. […] Food intake was controlled at W9, W15, W21, W26 and W34 by weighing daily quantities of food added and remaining. […]\nParaffin embedded right knees were cut with a microtome (Leica) in 6 μm sections, in the central area not covered by meniscus, following the Cushin plane, as recommended by OARSI. […] Each compartment of the section (tibial median, tibial lateral, femoral median and femoral lateral) was scored by two blinded trained experts following OARSI recommendation and to assess the global cartilage score, each compartment score was added. […]\nThe results (mean±SD) were calculated for each parameter. […]"}, "PGE2": {"tested_on": "PGE2", "test": "PGE2 in guinea pig serum by competitive ELISA", "format": "in vivo", "conditions": "in diet 31 weeks; week 35; vs control group", "quoted_text": "6 h fasting blood was obtained in the morning, under ketamine/xylazine tranquilization, at the superficial veins at the ears, each 6 weeks: W4 (=TO), W10, W16, W22, W28. At W35, blood was collected by intracardiac puncture just before euthanasia, under general anesthesia.\nPGE2 was measured in guinea pig serum using a competitive ELISA kit (Arbor Assays, USA).\nThe results (mean±SD) were calculated for each parameter. Following a normality test, a parametric ANOVA with Dunnett's post-test or Pearson correlation was performed on all the experiments. *p<0.05; **<0.01; ***p<0.001."}, "ADAMTS-5": {"tested_on": "ADAMTS-5", "test": "ADAMTS-5 mRNA expression (real-time PCR, relative to GAPDH) in bovine primary chondrocytes in alginate beads", "format": "cell-based, Bos Taurus", "conditions": "1.5 μM each, 3 days", "quoted_text": "(§1) An in vitro study of bovine primary chondrocytes in alginate beads was performed. Substantially purified oleuropein (>98%) was purchased from Extrasynthese (Genay, France). Substantially purified hydroxytyrosol (>98%) was purchased from Extrasynthese (Genay, France). Substantially purified quercetin (>97%) was purchased from HWI Analytik GmbH (Ruelzheim, Germany).\n(§2) The foot of a young cow was washed to remove soil. The skin was removed from the foot. The articulation was opened transversally. Intra articular ligaments were transected. The opened articulation was washed with phosphate buffered saline. With a scalpel blade, full thickness slices of cartilage were dissected out and collected in DMEM high glucose with 10 mM Hepes and 1% Penicillin-Streptomycin. Slices of cartilage were washed in DMEM high glucose with 10 mM Hepes and 1% Penicillin-Streptomycin. […]\n(§3) Total RNA was isolated from a pool of 40 beads and isolated using RNeasy kit from Qiagen. cDNA was obtained by reverse transcription of RNA with the Primescript 1st strand cDNA Synthesis kit from Takara. mRNA expression of ADAMTS-5, COX-2, MMP-13 and GAPDH were quantified in real-time PCR (SYBR Green).\n(§4) Data were expressed as fold change in gene expression compared to negative control (cells cultured in complete medium).\n(§5) Data was expressed as median±S.E.Median (2 experiments of 3 replicates each). […]"}, "COX-2": {"tested_on": "COX-2", "test": "COX-2 mRNA expression (real-time PCR, relative to GAPDH) in bovine primary chondrocytes in alginate beads", "format": "cell-based, Bos Taurus", "conditions": "1.5 μM each, 3 days", "quoted_text": "as §1, §2, §3, §4, §5"}, "MMP-13": {"tested_on": "MMP-13", "test": "MMP-13 mRNA expression (real-time PCR, relative to GAPDH) in bovine primary chondrocytes in alginate beads", "format": "cell-based, Bos Taurus", "conditions": "1.5 μM each, 3 days", "quoted_text": "as §1, §2, §3, §4, §5"}, "[2]": {"tested_on": "Primary osteoblasts from the calvaria of newborn Wistar rats", "test": "Alkaline phosphatase (ALP) activity of primary osteoblasts", "format": "cell-based, rat", "conditions": "day 15; 1 μM OLP, 1 μM HTy, 10^−9 M 1,25(OH)2D3; vs C−", "method": "Alkaline phosphatase activity of osteoblasts and potentiation of effect by vitamin D were investigated. Primary osteoblasts were isolated from the calvaria of newborn Wistar rats by enzymatic digestion as described by […] et al. in 2004. During all experiments, cells were maintained in α-minimal essential medium with 10% heat-inactivated fetal bovine serum and 1% penicillin/streptomycin under conditions of 5% CO2 and 37° C. Cells were seeded on Coll-1-coated 96-well plates at a density of 3500 cells/well or in 24-well plates at a density of 3×10^4 cells/well and cultured for 2 days in α-MEM to reach confluence. Cells were then exposed to different conditions: minimal medium (C-), minimal medium containing 50 μg/ml ascorbic acid, 5 mM β-glycerophosphate (C+; optimized medium), and minimal medium supplemented with 1 μM oleuropein (OLP) and/or 1 μM hydroxytyrosol (HTy) and/or 10^-9 M 1,25 dihydroxivitamin […] dissolved in dimethylsulfoxide (DMSO) and 1,25(OH)2D3 was dissolved in ethanol. […] Enzymatic activity of alkaline phosphatase (ALP) was measured kinetically on Treatment Days 0, 5, 9, 12 and 15. […] Absorbance was measured at 405 nm and 30° C., and every 2 min 30 s for 30 min using a VarioSklan Flash microplate reader. ALP activity was expressed as micromoles of p-NPP per hour per milligram of protein. […] Data were expressed as mean±SEM. […]. […]"}, "[3]": {"conditions": "disease conditions (presence of IL1a 10 ng/ml), vs IL1a"}, "[4]": {"conditions": "normal conditions (absence of IL1a), vs CTL−"}},
  "data": [
    {"smiles": "COc1cc(/C=C/C(=O)CC(=O)/C=C/c2ccc(O)c(OC)c2)ccc1O", "note": "[curcumin]", "values": [
      {"measurement": "total OA score (histological cartilage score)", "setting": "[1]", "result": "decreasing cartilage degradation and histological OA score"},
      {"measurement": "PGE2 levels in plasma/serum", "setting": "PGE2", "result": "only non-significant effect"}
    ]},
    {"smiles": "O=c1c(O)c(-c2ccc(O)c(O)c2)oc2cc(O)cc(O)c12", "note": "[quercetin]", "values": [
      {"measurement": "ADAMTS-5 mRNA expression relative to GAPDH", "setting": "ADAMTS-5; [3]", "result": "decrease expression of ADAMTS-5"},
      {"measurement": "ADAMTS-5 mRNA expression relative to GAPDH", "setting": "ADAMTS-5; [4]", "result": "decrease expression of ADAMTS-5"},
      {"measurement": "COX-2 mRNA expression relative to GAPDH", "setting": "COX-2; [3]", "result": "decrease expression of COX-2"},
      {"measurement": "COX-2 mRNA expression relative to GAPDH", "setting": "COX-2; [4]", "result": "can reduce expression of COX-2"},
      {"measurement": "MMP-13 mRNA expression relative to GAPDH", "setting": "MMP-13; [3]", "result": "decrease expression of MMP-13"},
      {"measurement": "MMP-13 mRNA expression relative to GAPDH", "setting": "MMP-13; [4]", "result": "decrease expression of MMP-13"}
    ]},
    {"smiles": "C=C1/C(=C\\C=C2/CCC[C@]3(C)[C@@H]([C@H](C)CCCC(C)(C)O)CC[C@@H]23)C[C@@H](O)C[C@@H]1O", "note": "[vitamin D3, 1,25 dihydroxivitamin D3]", "values": [
      {"measurement": "alkaline phosphatase (ALP) activity / osteoblast activity", "setting": "[2]", "result": "small but statistically significant increase"}
    ]}
  ]
}
